Starred links: 1 amine or outer side, 2 acyl side, 3 side chain; linkers in the order of their positions; H or OH if unused. Positions of bridges follow the written chain, without caps; N, C: chain ends. Non-standard residues stand in square brackets, D forms with d. Residues, ends and D or L forms follow the SMILES beside them. *: point of attachment. hPhe(3-Cl-4-CF3) = N[C@@H](CCc1ccc(C(F)(F)F)c(Cl)c1)C(=O)O; hPhe(3-F,4-CF3) = N[C@@H](CCc1ccc(C(F)(F)F)c(F)c1)C(=O)O; NMePhe(4-CF3) = CN[C@@H](Cc1ccc(C(F)(F)F)cc1)C(=O)O; Pro(cis-4-Ph) = O=C(O)[C@@H]1C[C@H](c2ccccc2)CN1; 3Oxa8azabicyclo(3.2.1)octane = C1CC2COCC1N2*; NMePhe(4-F) = CN[C@@H](Cc1ccc(F)cc1)C(=O)O; NMedβ3hAla = C[C@H](CC(=O)[*:2])N(C)[*:1]; NMeGly(cPent) = CN[C@H](C(=O)O)C1CCCC1; Pro(4,4-F2) = O=C(O)[C@@H]1CC(F)(F)CN1; NMeGly(cBu) = CN[C@H](C(=O)O)C1CCC1; NMeCha = CN[C@@H](CC1CCCCC1)C(=O)O; NMeChg = CN[C@H](C(=O)O)C1CCCCC1; NMeI = CC[C@H](C)[C@H](NC)C(=O)O; NMeD = CN[C@@H](CC(=O)O)C(=O)O; NMeL = CN[C@@H](CC(C)C)C(=O)O; NMehSer = CN[C@@H](CCO)C(=O)O; NMeV = CN[C@H](C(=O)O)C(C)C; Trifluoroethyl = FC(F)(F)C*; d(β3hA) = C[C@@H](N)CC(=O)O; NMeS = CN[C@@H](CO)C(=O)O; Pip = O=C(O)[C@@H]1CCCCN1; NMeA = CN[C@@H](C)C(=O)O; NMeAib = CNC(C)(C)C(=O)O; Piperidide = C1CCN(*)CC1; Pyrrolidide = C1CCN(*)C1; Ac5c = NC1(C(=O)O)CCCC1; Aze = O=C(O)[C@@H]1CCN1; Sar = CNCC(=O)O; Propyl = CCC*
Test system: Human pancreatic cancer cell line AsPC-1
Experiment: Measurement of AsPC-1 cell growth inhibition (AsPC-1 CGI)
Type: cell-based
Conditions: 96 h
Experimental: Measurement of AsPC-1 Cell Growth Inhibition (AsPC-1 CGI)
Test compounds were serially diluted with dimethyl sulfoxide, and 200 nL was then dispensed to a U-bottom 96-well plate using Labcyte Echo. Human pancreatic cancer cell line AsPC-1 was suspended in RPMI-1640 medium supplemented with 15% fetal bovine serum to prepare a cell suspension at 1000 cells/100 μL. The cell suspension was dispensed to a plate containing a test compound at 100 μL per well and incubated at 37° C. in a 5% carbon dioxide gas incubator. 96 hours later, 80 μL of CellTiter-Glo (Promega) was added to each well and […] was measured.

Structure (SMILES)	IC50
CC[C@H](C)[C@@H]1NC(=O)[C@H](CC(C)C)N(C)C(=O)C[C@@H](C(=O)N2CCCCC2)N(C)C(=O)[C@H](C2CCCCC2)N(C)C(=O)C2(CCCC2)NC(=O)[C@H](C)N(C)C(=O)[C@H](CCc2ccc(C(F)(F)F)c(Cl)c2)NC(=O)CN(C)C(=O)[C@H](CC2CCCCC2)N(C)C(=O)CN(C)C(=O)CN(C)C1=O [Compound 294] ([NMeL]I[Sar][Sar][NMeCha][Sar][hPhe(3-Cl-4-CF3)][NMeA][Ac5c][NMeChg][NMeD]-Piperidide; lactam N-11)	100 to 500 nM
CC[C@H](C)[C@@H]1NC(=O)[C@H](CC(C)C)N(C)C(=O)C[C@@H](C(=O)N2CCCC2)N(C)C(=O)[C@H]([C@@H](C)CC)N(C)C(=O)C2(CCCC2)NC(=O)[C@@H]2CCCN2C(=O)[C@H](CCc2ccc(C(F)(F)F)c(F)c2)NC(=O)CN(C)C(=O)[C@H](C2CCCC2)N(C)C(=O)[C@@H]2CCN2C(=O)[C@H](C)N(C)C1=O [Compound 313] ([NMeL]I[NMeA][Aze][NMeGly(cPent)][Sar][hPhe(3-F,4-CF3)]P[Ac5c][NMeI][NMeD]-Pyrrolidide; lactam N-11)	20 to 50 nM
CC[C@H](C)[C@@H]1NC(=O)[C@H](CC(C)C)N(C)C(=O)C[C@@H](C)N(C)C(=O)[C@H](C2CCCCC2)N(C)C(=O)C2(CCCC2)NC(=O)[C@@H]2CC(F)(F)CN2C(=O)[C@H](CCc2ccc(C(F)(F)F)c(Cl)c2)NC(=O)CN(C)C(=O)[C@H](Cc2ccc(C(F)(F)F)cc2)N(C)C(=O)[C@@H]2CCN2C(=O)[C@H](C)N(C)C1=O [Compound 319] (cyclo([Ac5c][NMeChg][NMedβ3hAla][NMeL]I[NMeA][Aze][NMePhe(4-CF3)][Sar][hPhe(3-Cl-4-CF3)][Pro(4,4-F2)]))	100 to 500 nM
CC[C@H](C)[C@@H]1NC(=O)[C@H](C)N(C)C(=O)C[C@@H](C)N(C)C(=O)[C@H](C(C)C)N(C)C(=O)C(C)(C)N(C)C(=O)[C@@H]2CCCN2C(=O)[C@H](CCc2ccc(C(F)(F)F)c(Cl)c2)NC(=O)CN(C)C(=O)[C@H](CC2CCCCC2)N(C)C(=O)[C@@H]2CCN2C(=O)[C@H](C)N(C)C1=O [Compound 341] (cyclo([Aze][NMeCha][Sar][hPhe(3-Cl-4-CF3)]P[NMeAib][NMeV][NMedβ3hAla][NMeA]I[NMeA]))	100 to 500 nM
CC[C@H](C)[C@@H]1NC(=O)[C@H](CC(C)C)N(C)C(=O)C[C@@H](C)N(C)C(=O)[C@H](C2CCCCC2)N(C)C(=O)C2(CCCC2)NC(=O)[C@@H]2CCCN2C(=O)[C@H](CCc2ccc(C(F)(F)F)c(Cl)c2)NC(=O)CN(C)C(=O)[C@H](Cc2ccc(C(F)(F)F)cc2)N(C)C(=O)[C@@H]2CCN2C(=O)[C@H](C)N(C)C1=O [Compound 348] (cyclo([Ac5c][NMeChg][NMedβ3hAla][NMeL]I[NMeA][Aze][NMePhe(4-CF3)][Sar][hPhe(3-Cl-4-CF3)]P))	100 to 500 nM
CC[C@H](C)[C@@H]1NC(=O)[C@H](CC(C)C)NC(=O)C[C@@H](C(=O)N2CCCCC2)N(C)C(=O)[C@H](C2CCCCC2)N(C)C(=O)C2(CCCC2)NC(=O)[C@@H]2CCCN2C(=O)[C@H](CCc2ccc(C(F)(F)F)c(Cl)c2)NC(=O)CN(C)C(=O)[C@H](CC2CCCCC2)N(C)C(=O)CN(C)C(=O)CN(C)C1=O [Compound 356] (LI[Sar][Sar][NMeCha][Sar][hPhe(3-Cl-4-CF3)]P[Ac5c][NMeChg][NMeD]-Piperidide; lactam N-11)	100 to 500 nM
CCCOC[C@H]1C(=O)N(C)CC(=O)N[C@@H](CCc2ccc(C(F)(F)F)c(Cl)c2)C(=O)N2CCC[C@H]2C(=O)NC2(CCCC2)C(=O)N(C)[C@@H](C2CCCC2)C(=O)N(C)[C@H](C)CC(=O)N(C)[C@@H](CC(C)C)C(=O)N[C@@H]([C@@H](C)CC)C(=O)N(C)[C@@H](C)C(=O)N2CC[C@H]2C(=O)N1C [Compound 366] (cyclo([Ac5c][NMeGly(cPent)][NMedβ3hAla][NMeL]I[NMeA][Aze][NMeS](Propyl)[Sar][hPhe(3-Cl-4-CF3)]P))	20 to 50 nM
CC[C@H](C)[C@@H]1NC(=O)[C@H](CC(C)C)N(C)C(=O)C[C@@H](C)N(C)C(=O)[C@H](C2CCCC2)N(C)C(=O)C2(CCCC2)NC(=O)[C@@H]2CCCN2C(=O)[C@H](CCc2ccc(C(F)(F)F)c(F)c2)NC(=O)CN(C)C(=O)[C@H](C2CCCC2)N(C)C(=O)[C@@H]2CCN2C(=O)[C@H](C)N(C)C1=O [Compound 386] (cyclo([Ac5c][NMeGly(cPent)][NMedβ3hAla][NMeL]I[NMeA][Aze][NMeGly(cPent)][Sar][hPhe(3-F,4-CF3)]P))	20 to 50 nM
CC[C@H](C)[C@@H]1NC(=O)[C@H](COCC(F)(F)F)N(C)C(=O)C[C@@H](C(=O)N2CCCCC2)N(C)C(=O)[C@H](C(C)C)N(C)C(=O)C2(CCCC2)NC(=O)[C@@H]2CCCN2C(=O)[C@H](CCc2ccc(C(F)(F)F)c(Cl)c2)NC(=O)CN(C)C(=O)[C@H](CC2CCCCC2)N(C)C(=O)[C@@H]2CCN2C(=O)[C@H](C)N(C)C1=O [Compound 387] ([NMeS](Trifluoroethyl)I[NMeA][Aze][NMeCha][Sar][hPhe(3-Cl-4-CF3)]P[Ac5c][NMeV][NMeD]-Piperidide; lactam N-11)	100 to 500 nM
CC[C@H](C)[C@@H]1NC(=O)[C@H](CC(C)C)N(C)C(=O)C[C@@H](C(=O)N2CCCCC2)N(C)C(=O)[C@H](C2CCCC2)N(C)C(=O)C2(CCCC2)NC(=O)[C@@H]2CCCN2C(=O)[C@H](CCc2ccc(C(F)(F)F)c(Cl)c2)NC(=O)CN(C)C(=O)[C@H](Cc2ccc(F)cc2)N(C)C(=O)[C@@H]2CCN2C(=O)[C@H](C)N(C)C1=O [Compound 388] ([NMeL]I[NMeA][Aze][NMePhe(4-F)][Sar][hPhe(3-Cl-4-CF3)]P[Ac5c][NMeGly(cPent)][NMeD]-Piperidide; lactam N-11)	20 to 50 nM
CC[C@H](C)[C@@H]1NC(=O)[C@H](CCOC)N(C)C(=O)C[C@@H](C(=O)N2CCCCC2)N(C)C(=O)[C@H](C(C)C)N(C)C(=O)C2(CCCC2)NC(=O)[C@@H]2CCCN2C(=O)[C@H](CCc2ccc(C(F)(F)F)c(Cl)c2)NC(=O)CN(C)C(=O)[C@H](CC2CCCCC2)N(C)C(=O)[C@@H]2CCN2C(=O)[C@H](C)N(C)C1=O [Compound 397] ([NMehSer](Me)I[NMeA][Aze][NMeCha][Sar][hPhe(3-Cl-4-CF3)]P[Ac5c][NMeV][NMeD]-Piperidide; lactam N-11)	100 to 500 nM
CCCOC[C@H]1C(=O)N(C)CC(=O)N[C@@H](CCc2ccc(C(F)(F)F)c(F)c2)C(=O)N2CCC[C@H]2C(=O)NC2(CCCC2)C(=O)N(C)[C@@H]([C@@H](C)CC)C(=O)N(C)[C@H](C(=O)N2C3CCC2COC3)CC(=O)N(C)[C@@H](CC(C)C)C(=O)N[C@@H]([C@@H](C)CC)C(=O)N(C)[C@@H](C)C(=O)N2CC[C@H]2C(=O)N1C [Compound 408] ([NMeL]I[NMeA][Aze][NMeS](Propyl)[Sar][hPhe(3-F,4-CF3)]P[Ac5c][NMeI][NMeD]-{3Oxa8azabicyclo(3.2.1)octane}; lactam N-11)	50 to 100 nM
CC[C@H](C)[C@@H]1NC(=O)[C@H](CC(C)C)N(C)C(=O)C[C@@H](C(=O)N2CCCCC2)N(C)C(=O)[C@H]([C@@H](C)CC)N(C)C(=O)C2(CCCC2)NC(=O)[C@@H]2CCCN2C(=O)[C@H](CCc2ccc(C(F)(F)F)c(F)c2)NC(=O)CN(C)C(=O)[C@H](CC2CCCCC2)N(C)C(=O)[C@@H]2CCN2C(=O)[C@H](C)N(C)C1=O [Compound 409] ([NMeL]I[NMeA][Aze][NMeCha][Sar][hPhe(3-F,4-CF3)]P[Ac5c][NMeI][NMeD]-Piperidide; lactam N-11)	50 to 100 nM
CC[C@H](C)[C@@H]1NC(=O)[C@H](CC(C)C)N(C)C(=O)C[C@@H](C)NC(=O)[C@H](C(C)C)N(C)C(=O)C2(CCCC2)NC(=O)[C@@H]2CCCN2C(=O)[C@H](CCc2ccc(C(F)(F)F)c(Cl)c2)NC(=O)CN(C)C(=O)[C@H](CC2CCCCC2)N(C)C(=O)[C@@H]2CCN2C(=O)[C@@H]2CCCCN2C1=O [Compound 416] (cyclo([Ac5c][NMeV][d(β3hA)][NMeL]I[Pip][Aze][NMeCha][Sar][hPhe(3-Cl-4-CF3)]P))	100 to 500 nM
CC[C@H](C)[C@@H]1NC(=O)[C@H](CC(C)C)N(C)C(=O)C[C@@H](C(=O)N2CCCCC2)N(C)C(=O)[C@H](C2CCCCC2)N(C)C(=O)C2(CCCC2)NC(=O)[C@@H]2C[C@H](c3ccccc3)CN2C(=O)[C@H](CCc2ccc(C(F)(F)F)c(Cl)c2)NC(=O)CN(C)C(=O)[C@H](CC2CCCCC2)N(C)C(=O)CN(C)C(=O)CN(C)C1=O [Compound 428] ([NMeL]I[Sar][Sar][NMeCha][Sar][hPhe(3-Cl-4-CF3)][Pro(cis-4-Ph)][Ac5c][NMeChg][NMeD]-Piperidide; lactam N-11)	100 to 500 nM
CC[C@H](C)[C@@H]1NC(=O)[C@H](CC(C)C)N(C)C(=O)C[C@@H](C(=O)N2CCCCC2)N(C)C(=O)[C@H](C(C)C)N(C)C(=O)C2(CCCC2)NC(=O)[C@@H]2CCCN2C(=O)[C@H](CCc2ccc(C(F)(F)F)c(Cl)c2)NC(=O)CN(C)C(=O)[C@H](C2CCC2)N(C)C(=O)[C@@H]2CCN2C(=O)[C@H](C)N(C)C1=O [Compound 446] ([NMeL]I[NMeA][Aze][NMeGly(cBu)][Sar][hPhe(3-Cl-4-CF3)]P[Ac5c][NMeV][NMeD]-Piperidide; lactam N-11)	100 to 500 nM
CC[C@H](C)[C@@H]1NC(=O)[C@H](CC(C)C)N(C)C(=O)C[C@@H](C(=O)N2CCCC2)NC(=O)[C@H]([C@@H](C)CC)N(C)C(=O)C2(CCCC2)NC(=O)[C@@H]2CCCN2C(=O)[C@H](CCc2ccc(C(F)(F)F)c(Cl)c2)NC(=O)CN(C)C(=O)[C@H](CC2CCCCC2)N(C)C(=O)[C@@H]2CCN2C(=O)[C@H](C)N(C)C1=O [Compound 453] ([NMeL]I[NMeA][Aze][NMeCha][Sar][hPhe(3-Cl-4-CF3)]P[Ac5c][NMeI]D-Pyrrolidide; lactam N-11)	50 to 100 nM

From patent US12371454B2, “Cyclic peptide compound having Kras inhibitory action” (priority 2019, dated 2025)
